The METLIN SMRT retention time set (Domingo-Almenara et al. 2019)

Experiment: gradient 5% acetonitrile 3 min, to 50% in 2 min, to 85% in 15 min, held 3 min, 100 µL/min
Details: column: Zorbax Extend-C18 2.1 x 50 mm; eluents: water / acetonitrile, 0.1% formic acid
How it was run: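 Over 3 months, pure standards in mixtures of ~100 molecules were run by HPLC coupled to a quadrupole time-of-flight mass spectrometer in positive and negative ionization mode. The column was a Zorbax Extend-C18 (2.1 × 50 mm, 1.8 μm) at 100 μL/min, eluted with water and acetonitrile each holding 0.1% formic acid, with 40 μL dead and 900 μL dwell volumes. Retention time was determined from adduct peaks chosen by software and checked manually.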

| Structure (SMILES) | RP-LC retention time [s] |
| --- | --- |
| O=c1ccn(-c2ccc(F)c(F)c2)nc1-c1nc(-c2ccc(F)cc2)no1 | 904 |
| Cc1ccc(CNC(=O)C2(C)Cn3nc(C(=O)NCc4ccccc4)cc3C(=O)N2C)cc1 (stereo not given) | 766 |
| COC(=O)c1cc2c(cc1NC(=O)c1cc(-c3cccnc3)nc3ccccc13)OCO2 | 884 |
| Cc1cccc(C)c1Nc1c(-c2ccc(Cl)cc2)nc2cnccn12 | 1030 |
| CC(=O)COc1cc(O)c2c(=O)cc(-c3ccccc3)oc2c1 | 938 |
| Cc1ccc(-c2nc(NC(=O)c3cncc(Br)c3)sc2C)cc1 | 1180 |
| CCOC(=O)C1CCN(C(=O)c2nnc(-c3ccc(S(=O)(=O)N4CCCCC4)cc3)o2)CC1 | 961 |
| COc1ccc(C2=NC3(CCN(C(C)C)CC3)NC(c3ccccc3O)C2)cc1 (stereo not given) | 592 |
| CCCCn1c(=O)c2ccccc2n(Cc2nc(-c3ccccc3)no2)c1=O | 1140 |
| CC(C)c1ccc(-c2cc3c4nn(CC(=O)NCc5ccco5)c(=O)n4ccn3n2)cc1 | 946 |
| CC(C)CC(=O)N1CCc2c(c(-c3nncn3C(C)C)nn2C)C1 | 682 |
| O=C(c1ccc(Br)cc1)N1CCc2nc[nH]c2C1 | 578 |
| CCOc1ccccc1NC(=O)C1CCN(S(=O)(=O)c2c(C)nn(-c3ccccc3)c2C)CC1 | 1030 |
| CCOCCCNCc1ccc(-c2ccccc2)o1 | 649 |
| COc1ccc(N2C(=O)CCC(C(=O)N3CC(C)CC(C)C3)C2c2ccc(F)cc2)cc1 (stereo not given) | 896 |
| O=C(NCc1cccnc1)C1c2ccccc2C(=O)N(C2CCCC2)C1c1cccs1 (stereo not given) | 591 |
| COc1cccc(N2CCN(Cc3nc4nc(C)cc(N(C)C)n4n3)CC2)c1 | 610 |
| O=C(CCC1CCN(c2cc(NC3CC3)ncn2)CC1)NCc1cnccn1 | 564 |
| CCC(=O)N1CCc2c(C(=O)O)cccc21 | 657 |
| COc1ccc(C(=O)COC(=O)c2cccs2)cc1 | 846 |
| O=C(Cc1cccs1)N1CCCn2cc(-c3ccccc3F)nc21 | 848 |
| CCCCN(C)S(=O)(=O)c1cc(-c2nnc(C(C)C)o2)co1 | 984 |
| O=C(NC(c1ccccc1)c1nnc(N2CCCCC2)o1)C1CCCC1 (stereo not given) | 836 |

| Structure (SMILES) | RP-LC retention time [s] |
| --- | --- |
| CCc1ccc(C2=C(C)C(N3CCCN(C(=O)CC4CCCC4)CC3)=NS2(=O)=O)cc1 | 984 |
| Cc1ccc(F)c(NC(=O)Cn2cc(-c3nnc(C)o3)ccc2=O)c1 | 805 |
| COc1c(C(=O)NC(C)c2ccccc2)sc2cccc(F)c12 (stereo not given) | 1140 |
| COc1ccc2[nH]c(C(=O)N3CC(n4cc(COCC5CC5)nn4)C3)cc2c1 | 742 |
| O=C(NC1CCN(c2cc(-c3ccc(Cl)cc3)[nH]n2)C1)c1ccc2nc[nH]c2c1 (stereo not given) | 626 |
| O=S1(=O)C[C@H](N2CCN(Cc3ccccc3)CC2)[C@@H](S(=O)(=O)c2ccc(F)cc2)C1 | 647 |
| COC(=O)c1ccc2c(=O)n(-c3ccc(Cl)cc3)c(N3CCCN(C)CC3)nc2c1 | 670 |
| CCOC(=O)C1CCCN(C(=O)c2csc3nc(-c4ccc(F)cc4)cn23)C1 (stereo not given) | 854 |
| COc1ccc(-c2nnc(COc3ccc(NC(=O)c4ccccn4)cc3)o2)cc1 | 930 |
| O=C(c1c(F)cccc1F)N1CCc2nc(-c3ccc(Cl)cc3)ncc2C1 | 1100 |
| COc1cc(NC(=O)c2sc(-n3cccc3)nc2C(C)C)cc(OC)c1 | 1210 |
| CC(=O)Nc1ccc(S(=O)(=O)N2CCn3cccc3C2c2ccc(F)c(F)c2)cc1 (stereo not given) | 857 |
| O=C(CN1CCN(Cc2ccc(F)cc2)C1=O)NCCc1ccccc1Cl | 847 |
| CCCCNC(=O)C(C)Sc1nc2nc(C)cc(C)n2n1 (stereo not given) | 679 |
| CCOc1ccc2nc(NC(=O)CCc3csc(NC(=O)c4ccco4)n3)sc2c1 | 844 |
| Cc1ccc(C)c(S(=O)(=O)N(C)CC2CCOCC2)c1 | 913 |
| CCN(CC)CCNC(=O)c1ccc(-c2nc(CCN(C)C(C)=O)no2)cc1 | 576 |
| O=C(c1cc(O)c(O)c([N+](=O)[O-])c1)c1ccccc1F | 716 |
| O=C(Cc1ccccc1)N1CCN(c2nc(CN3CCOCC3)cs2)CC1 | 614 |
| COc1cccc(CNC(=O)CN2CCc3[nH]c4c(OC)ccc(Cl)c4c(=O)c3C2)c1 | 618 |
| O=S(=O)(c1ccc(F)cc1)N1CCC(c2noc(C3CC3)n2)C1 (stereo not given) | 885 |
| CCc1ccc(C2=C(C)C(N3CCCN(C(=O)C4CC4)CC3)=NS2(=O)=O)cc1 | 843 |
| Cc1c(Cl)cccc1NC(=O)NCC1(N2CCOCC2)CCOC1 (stereo not given) | 614 |

| Structure (SMILES) | RP-LC retention time [s] |
| --- | --- |
| CCCNC(=O)C1CCN(c2ccc(SCC(=O)Nc3cc(OC)cc(OC)c3)nn2)CC1 | 653 |
| Cn1c(COc2ccc(Cl)cc2)nc2ccccc21 | 647 |
| O=C(Cc1cccc(F)c1)N1CCc2nc(-c3ccc(Cl)cc3)ncc2C1 | 1060 |
| O=C(NCC1CCN(S(=O)(=O)C2CC2)CC1)Nc1ccccc1C(F)(F)F | 765 |
| Cc1ccc(Nc2c(-c3ccc([N+](=O)[O-])cc3)nc3ccc(C)cn23)cc1 | 838 |
| COc1ccccc1CNC(=O)C(=O)NCc1ccsc1 | 796 |
| COc1ccccc1CNC(=O)c1ccc2c(c1)nc1n2CCN(Cc2ccccc2)C1=O | 789 |
| Cc1ccc(C2=NC3(CCN(C(=O)CSc4ccccc4)CC3)ON2)cc1 | 894 |
| Cc1ccc(-c2cc(NC(=O)Cc3ccccc3C)on2)s1 | 1030 |
| CC1CCN(c2nc(C(=O)N3CCN(C(C)C)CC3)nc3c2cnn3C)CC1 | 604 |
| c1cc(N2CCSCC2)ncc1-c1noc(CN2CCSCC2)n1 | 815 |
| CC(C)CC(=O)Nc1ccc(-n2cnc(C(=O)N3CCC(C)CC3)c2)nc1 | 774 |
| CC1CCCCN1CCNC(=O)C1CC(=O)N(c2ccc3c(c2)CCN3C(=O)C2CC2)C1 (stereo not given) | 578 |
| COc1ccc(Cl)cc1NC(=O)NC1CCN(c2ccc(F)cc2)C1=O (stereo not given) | 899 |
| COc1cc(OC)c2c(C)c(CC(=O)N3CCC(C(N)=O)CC3)c(=O)oc2c1 | 649 |
| CCN(CC)S(=O)(=O)N1CCCC(C(=O)NCCc2ccc(Cl)cc2)C1 (stereo not given) | 945 |
| Nc1cc(C2CCN(S(=O)(=O)c3cccc4cccnc34)CC2)no1 | 702 |
| Cc1cc2c(C)c(C(=O)N3CCCCC3)oc2c(S(=O)(=O)N2CCN(c3ncccn3)CC2)c1C | 1100 |
| Cc1ccccc1Oc1nccnc1N1CCC(C(=O)NC2CCCCCC2)CC1 | 1090 |
| COc1ccc2c(ccn2CC(=O)N[C@@H](C)C(=O)O)c1 | 665 |
| Cn1c(=O)c2c(ncn2CC(=O)N2CCC(c3nc(C4CCOCC4)no3)CC2)n(C)c1=O | 611 |
| COCCNC(=O)c1nnn(Cc2ccc(Cl)cc2)c1-n1cccc1 | 890 |
| CCOc1ccc(CNC(=O)CN2CC=C(c3cnn(-c4ccccc4)c3)CC2)cc1OCC | 746 |

| Structure (SMILES) | RP-LC retention time [s] |
| --- | --- |
| CCOC(=O)CNC(=O)C(c1ccccc1)n1cccc1 (stereo not given) | 784 |
| CCOc1nccnc1N1CCC(NC(=O)Cc2cccs2)C1 (stereo not given) | 921 |
| Cc1cc(-c2csc(S(=O)(=O)N(Cc3cccs3)C3CCCC3)c2)on1 | 1190 |
| CCOC(=O)c1ccccc1NC(=O)CSc1nnc(NC(=O)C(C)(C)C)s1 | 929 |
| O=C(NC1CC1)C1CCN(c2cncnc2N2CCCCC2)CC1 | 607 |
| Cc1noc(-c2cccc(OC3CN(C(=O)Nc4ccccc4)C3)c2)n1 | 844 |
| Cc1ccc(NC(=O)c2cn3c(n2)CCCC3)cc1 | 606 |
| O=C(NCc1[nH]nc2ccccc12)c1cccc(Cl)c1 | 805 |
| O=C(CSc1ccncc1)Nc1ccc(OCc2nnc(-c3ccccc3)o2)cc1 | 884 |
| Fc1ccc(CNc2cc(-n3cccn3)ncn2)cc1 | 830 |
| CCN1CCCC1CNC(=O)c1nc(-c2ccc3c(c2)OCC(=O)N3C)no1 (stereo not given) | 617 |
| Cc1cc(C(=O)Nc2ccc(F)c(F)c2)nc2cc(-c3ccco3)nn12 | 810 |
| CCOc1ccc(-c2cc3c(SCC)nccn3n2)cc1 | 1300 |
| CC(C)NC(=O)N1CCC(OCc2ccccc2)C1 (stereo not given) | 742 |
| CC(=O)N1CCc2ccc(NC(=O)Cc3ccc(-c4ccccc4)cc3)cc2C1 | 800 |
| CCc1nc(-c2ccc3c(c2)CCN3C(=O)c2ccco2)no1 | 914 |
| COc1ccc(CCC(=O)c2c(O)cc(O[C@@H]3O[C@H](CO)[C@@H](O)[C@H](O)[C@H]3O[C@@H]3O[C@@H](C)[C@H](O)[C@@H](O)[C@H]3O)cc2O)cc1O | 654 |
| CC(=O)N(Cc1nn(C)c2c1CN(S(=O)(=O)c1cccc(Cl)c1)CC2)c1ccccc1 | 783 |
| CCOC(=O)c1c(C)c(CCC(=O)NCCN2CCCCC2)n(C)c1C | 624 |
| O=C(Nc1ccc(N2CCN(c3ccccc3)C2=O)nc1)c1ccncc1 | 689 |
| Cc1cccc(N2CCN(Cc3nc(-c4ccc(N5CCCC5)nc4)no3)CC2)c1C | 787 |
